Measurements reported in article PMC8036666, “Biological and Physico-Chemical Characteristics of Arginine-Rich Peptide Gemini Surfactants with Lysine and Cystine Spacers” (International Journal of Molecular Sciences, 2021).
≈ marks a conversion by molar mass, not a printed value. Read-outs that look alike come from different tables or passages of the source. Marks after values point to notes of the source that are not given here. Where a SMILES comes first, the peptide text is derived from it. Bridges are numbered along the chain shown (N, C = ends). Roman numbers before positions name the chains, in order. Side-chain parts run from the residue outwards. The star is where a group is joined. Myristoyl = CCCCCCCCCCCCCC(=O)*; Lauroyl = CCCCCCCCCCCC(=O)*; Decanoyl = CCCCCCCCCC(=O)*; Octanoyl = CCCCCCCC(=O)*

How the values were obtained:
[1] = system: C. glabrata ATCC 15126; format: cell-based, Candida glabrata
Protocol: (§1) Minimal inhibitory concentrations of lipopeptides were determined in the presence of human serum to evaluate the effect of enzymatic degradation and protein binding of lipopeptides on antimicrobial activity. Serum concentrations were 1% and 10% (v/v). S. aureus (ATCC 33591), P. aeruginosa (ATCC 9027), and C. glabrata (ATCC 15126) were selected to this study.
(§2) The MICs were determined by the broth microdilution method according to the Clinical and Laboratory Standard Institute guidelines. For this purpose, initial inoculums of bacteria (5 × 10^5 CFU/mL) in MHB and yeasts (2 × 10^3 CFU/mL) in RPMI-1640 with 2% D-glucose were exposed to the ranging concentration of lipopeptides (0.5–256 μg/mL) and incubated at 37 °C for 18 h and 24 h, respectively. The experiments were conducted on 96-well microtiter polystyrene plates (Kartell, Noviglio, Italy). The growth was assessed visually after incubation, and the MIC was assumed as the lowest peptide concentration at which a noticeable growth of microorganisms was inhibited. All experiments were conducted in triplicate.
(§3) The MICs were determined in the presence of normal human serum (NHS; Sigma-Aldrich, Human Serum, Normal) in concentrations of 1 and 10% (v/v). NHS was stored frozen at −20 °C and thawed just before use. Microorganisms were cultivated as described in 3.4.1. Serial dilutions of compounds, inoculum density, medium, and incubation conditions were prepared as described in Section 3.4.2. Stock solutions of test compounds were prepared in appropriate culture medium.

[2] = system: E. coli ML-35 (ATCC 43827); assay: Inner membrane (IM) permeabilization kinetics, ONPG; format: cell-based, Escherichia coli; conditions: for ti (t2), incubation time at the intersection of two tangents, IM permeabilization: 32 µg/mL; for ti (t1), incubation time at the intersection of two tangents, IM permeabilization: 64 µg/mL
Excerpt: (§4) The permeabilization of E. coli ML-35 (ATCC 43827) membranes was studied for selected compounds (A4, B2, C2, B7, and C7) to compare their activity and membrane disruption over time. […] For OM and IM permeabilization, CENTA and ONPG were used, respectively. The permeabilization of OM causes the release of periplasmic β-lactamase, which hydrolyzes CENTA’s β-lactam ring to form a chromophore, 2-nitro-5-thiobenzoate (TNB) anion, while the disruption of IM results in the release of β-galactosidase, which hydrolyzes ONPG into galactose and a chromophore, ortho-nitrophenol (ONP). Both products of enzymatic reaction absorb light at 405 nm.
Inner and outer membranes permeabilization kinetics were evaluated using Escherichia coli ML-35 (ATCC 43827) and chromogenic substrates—CENTA (BioVision, Milpitas, CA, USA) and o-nitrophenyl-β-d-galactopyranoside (ONPG) (Sigma-Aldrich, Steinheim, Germany), as described previously. To examine OM permeabilization, CENTA was used as a β-lactamase substrate. In effect of OM permeabilization, the enzyme can hydrolyze CENTA’s β-lactam ring.

[3] = system: E. coli ML-35 (ATCC 43827)
Excerpt: as §4, §2
Inner and outer membranes permeabilization kinetics were evaluated using Escherichia coli ML-35 (ATCC 43827) and chromogenic substrates—CENTA (BioVision, Milpitas, CA, USA) and o-nitrophenyl-β-d-galactopyranoside (ONPG) (Sigma-Aldrich, Steinheim, Germany), as described previously. To examine OM permeabilization, CENTA was used as a β-lactamase substrate. In effect of OM permeabilization, the enzyme can hydrolyze CENTA’s β-lactam ring. The resulting color change (2-nitro-5-thiobenzoate anion, TNB^-) could be measured spectrophotometrically at 405 nm. The IM permeabilization was monitored with ONPG, which is a chromogenic β-galactosidase substrate. The product of this reaction ([…]) was measured spectrophotometrically at 405 nm (Multiskan GO Microplate Spectrophotometer, Thermo Fisher Scientific, Vantaa, Finland). […] Bacteria were incubated in lysogeny broth medium (LB; Biocorp, Warszawa, Poland) for 24 h at 37 °C. Subsequently, the cells were diluted in a fresh LB medium and incubated at 37 °C up to a mid-log phase (ca. 3 h). The culture was centrifuged (3 min, 1100× g) and rinsed twice with a PBS. The bacteria were resuspended in PBS up to a concentration of 5 × 10^6 CFU/mL. The final concentration of ONPG and CENTA was 1.5 mM and 0.15 mM, respectively. The ONPG/CENTA in PBS (Sigma-Aldrich, Steinheim, Germany) was used as a negative control. […] Readings were taken every 15 min for 3 h at 37 °C [125, 142, 143, 144]. Experiments were performed in triplicate on 96-well flat bottom microtiter polystyrene plates.

[4] = system: S. aureus ATCC 33591; format: cell-based, Staphylococcus aureus
Protocol: as §1, §2, §3

[5] = system: P. aeruginosa ATCC 9027; format: cell-based, Pseudomonas aeruginosa
Protocol: as §1, §2, §3

[6] = system: human red blood cells (hRBCs); conditions: cited from earlier work

Row | Compound | MIC C. glabrata ATCC 15126 ([1]; human serum 10% (v/v)) [µg/mL] | MIC E. coli ML-35 (ATCC 43827) [3] [µg/mL] | MIC S. aureus ATCC 33591 ([4]; human serum 10% (v/v)) [µg/mL] | MIC P. aeruginosa ATCC 9027 ([5]; human serum 10% (v/v)) [µg/mL] | also measured
1 | CCCCCCCCCCCCCC(=O)N[C@@H](CCCNC(=N)N)C(=O)N[C@@H](CCCNC(=N)N)C(N)=O [Compound A4, C14-RR-NH2] (Myristoyl-Arg-Arg-NH2) | 256 (≈ 474 µM) | 32 (≈ 59.3 µM) | 64 (≈ 119 µM) | 256 (≈ 474 µM) | ti (t2), incubation time at the intersection of two tangents, IM permeabilization [2]: 77.6 min; ti (t1), incubation time at the intersection of two tangents, IM permeabilization [2]: 39.0 min
2 | CCCCCCCCCCCC(=O)N[C@@H](CCCNC(=N)N)C(=O)N[C@@H](CCCNC(=N)N)C(N)=O [Compound A3, C12-RR-NH2] (Lauroyl-Arg-Arg-NH2) |  |  |  |  | HC50 [6]: >256 * µg/mL
3 | CCCCCCCC(=O)N[C@@H](Cc1ccccc1)C(=O)N[C@@H](CCCNC(=N)N)C(=O)N[C@@H](CCCNC(=N)N)C(=O)N[C@@H](CSSC[C@H](NC(=O)[C@H](CCCNC(=N)N)NC(=O)[C@H](CCCNC(=N)N)NC(=O)[C@H](Cc1ccccc1)NC(=O)CCCCCCC)C(N)=O)C(N)=O [Compound C5] (I: Octanoyl-FRRC-NH2 / II: Octanoyl-FRRC-NH2; disulfide I:4-II:4) | >256 |  | 256 (≈ 182 µM) | >256 | MIC C. glabrata ATCC 15126 ([1]; human serum 0% (v/v)): 8 µg/mL (≈ 5.67 µM); MIC C. glabrata ATCC 15126 ([1]; human serum 1% (v/v)): 128 µg/mL (≈ 90.8 µM); MIC S. aureus ATCC 33591 ([4]; human serum 0% (v/v)): 2 µg/mL (≈ 1.42 µM); MIC S. aureus ATCC 33591 ([4]; human serum 1% (v/v)): 64 µg/mL (≈ 45.4 µM); MIC P. aeruginosa ATCC 9027 ([5]; human serum 0% (v/v)): 8 µg/mL (≈ 5.67 µM); MIC P. aeruginosa ATCC 9027 ([5]; human serum 1% (v/v)): 128 µg/mL (≈ 90.8 µM)
4 | CCCCCCCCCCCC(=O)N[C@@H](CCCNC(=N)N)C(=O)N[C@@H](CCCNC(=N)N)C(=O)N[C@@H](CSSC[C@H](NC(=O)[C@H](CCCNC(=N)N)NC(=O)[C@H](CCCNC(=N)N)NC(=O)CCCCCCCCCCC)C(N)=O)C(N)=O [Compound C3] (I: Lauroyl-Arg-Arg-Cys-NH2 / II: Lauroyl-Arg-Arg-Cys-NH2; disulfide I:3-II:3) | > 256 |  | 32 (≈ 26.1 µM) | 256 (≈ 209 µM) | 
5 | CCCCCCCC(=O)N[C@@H](CCCNC(=N)N)C(=O)N[C@@H](CCCNC(=N)N)C(N)=O [Compound A1, C8-RR-NH2] (Octanoyl-Arg-Arg-NH2) |  |  |  |  | HC50 [6]: >256 * µg/mL
6 | CCCCCCCCCC(=O)N[C@@H](CCCNC(=N)N)C(=O)N[C@@H](CCCNC(=N)N)C(=O)NCCCC[C@H](NC(=O)[C@H](CCCNC(=N)N)NC(=O)[C@H](CCCNC(=N)N)NC(=O)CCCCCCCCC)C(N)=O [Compound B2] (Decanoyl-Arg-Arg-Lys([Arg-Arg-Decanoyl])-NH2) |  | 32 (≈ 29.7 µM) |  |  | 
7 | CCCCCCCCCC(=O)N[C@@H](CCCNC(=N)N)C(=O)N[C@@H](CCCNC(=N)N)C(=O)N[C@@H](CSSC[C@H](NC(=O)[C@H](CCCNC(=N)N)NC(=O)[C@H](CCCNC(=N)N)NC(=O)CCCCCCCCC)C(N)=O)C(N)=O [Compound C2] (I: Decanoyl-Arg-Arg-Cys-NH2 / II: Decanoyl-Arg-Arg-Cys-NH2; disulfide I:3-II:3) |  | 32 (≈ 27.3 µM) |  |  | ti (t2), incubation time at the intersection of two tangents, IM permeabilization [2]: 45.7 min; ti (t1), incubation time at the intersection of two tangents, IM permeabilization [2]: 42.0 min
8 | CCCCCCC(CCCC)C(=O)N[C@@H](CCCNC(=N)N)C(=O)N[C@@H](CCCNC(=N)N)C(=O)NCCCC[C@H](NC(=O)[C@H](CCCNC(=N)N)NC(=O)[C@H](CCCNC(=N)N)NC(=O)C(CCCC)CCCCCC)C(N)=O (some centres unmarked) [Compound B7] | 64 (≈ 56.4 µM) | 32 (≈ 28.2 µM) | 8 (≈ 7.05 µM) | 128 (≈ 113 µM) | 
9 | CCCCCCC(CCCC)C(=O)N[C@@H](CCCNC(=N)N)C(=O)N[C@@H](CCCNC(=N)N)C(=O)N[C@@H](CSSC[C@H](NC(=O)[C@H](CCCNC(=N)N)NC(=O)[C@H](CCCNC(=N)N)NC(=O)C(CCCC)CCCCCC)C(N)=O)C(N)=O (some centres unmarked) [Compound C7] | 256 (≈ 209 µM) | 64 (≈ 52.1 µM) | 64 (≈ 52.1 µM) | 256 (≈ 209 µM) | ti (t2), incubation time at the intersection of two tangents, IM permeabilization [2]: 68.6 min; ti (t1), incubation time at the intersection of two tangents, IM permeabilization [2]: 43.9 min
10 | CCCCCCCCCCCC(=O)N[C@@H](CCCNC(=N)N)C(=O)N[C@@H](CCCNC(=N)N)C(=O)NCCCC[C@H](NC(=O)[C@H](CCCNC(=N)N)NC(=O)[C@H](CCCNC(=N)N)NC(=O)CCCCCCCCCCC)C(N)=O [Compound B3] (Lauroyl-Arg-Arg-Lys([Arg-Arg-Lauroyl])-NH2) | > 256 |  | 16 (≈ 14.1 µM) | 64 (≈ 56.4 µM) | 
11 | CCCCCCCCCC(=O)N[C@@H](CCCNC(=N)N)C(=O)N[C@@H](CCCNC(=N)N)C(N)=O [Compound A2, C10-RR-NH2] (Decanoyl-Arg-Arg-NH2) |  |  |  |  | HC50 [6]: >256 * µg/mL
